Like-named read-outs stand apart in the source and are kept apart here.
Tests used:
[1] = test system: postprandial serum bile acids AUC; test: Inhibition of the postprandial rise in SBA, LUM001 compared to cholestyramine; format: in vivo, dogs
Protocol: LUM001 was dissolved in 0.2% Tween 80 at concentrations that required the administration of 0.2 ml dosing solution/kg of body weight at each dose tested. Cholestyramine was suspended in water at concentrations that required the administration of 2.5 ml/kg (500 mg/kg) and 1 ml/kg (200 mg/kg). The appropriate volume of solution formulation for each animal was placed into a gelatin capsule, Torpac Inc., size 13, Batch 594, East Hanover, N.J. and administered per os. Test compounds were administered as single oral doses to groups of dogs, 3 to 9 dogs per group at varying dosages. LUM001 and cholestyramine were administered in solution 30 minutes prior to feeding and blood samples collected at 30-minute intervals for four hours after feeding. LUM001 was given at 0, 0.02, 0.05, 0.2, 0.6, 2, 5 or 15 mg/kg. Cholestyramine was administered at 200 or 500 mg/kg. […] No dog received any one compound dosage more than once. SBA was measured by an enzymatic assay. SBA values are expressed as μg of total bile acids/ml of serum.

[2] = Toxicokinetics of LUM001 free form, 13-week oral gavage toxicity study in rats; format: in vivo; conditions: for AUC(0-t) / Cmax / Tmax: rat, plasma, oral; for AUC(0-t): read-out: AUC(0-24 h)
Protocol: Charles River CD IGS rats were assigned to treatment groups (9sex/toxicokinetic group) and were administered daily doses of 0, 5, 30, 75, and 150 mg/kg (males) or 0, 5, 30, 150, and 500 mg/kg (females). LUM001 was administered by once daily oral gavage in distilled water and fresh dosing solutions were prepared weekly. All animals were dosed with 10 mL/kg/day based on the most recently determined body weights. On Day 1 and during Week 12, approximately 1 mL of venous blood was collected in heparinized tubes from the retro-orbital venous plexus. Animals were anesthetized with CO2-O2 and blood samples were collected at 1, 2, 3, 5, 8, and 24 hours post-dose. Survival permitting, the first 3 animals/sex dose group were bled at 1 and 5 hours post-dose, the second 3 animals/sex/dose group were bled at 2 and 8 hours post-dose, and the last 3 animals/sex/dose group were bled at 3 and 24 hours post-dose. Blood collection tubes were kept on ice during the collection period after which they were centrifuged and the plasma was harvested within approximately 60 minutes of blood collection. Plasma samples were stored at approximately −20° C. or lower until analyzed.
The concentration of LUM001 free form in plasma were determined using an LCMSMS method. The assay sensitivity was 4.75 ng/mL. Means and standard errors of the means (SEM) were calculated for plasma concentrations at each time point. Mean values are significant to three figures and SEM values are significant to the same decimal place as the corresponding mean. Concentration values less than the assay sensitivity (4.75 ng LUM001 free form/mL) were reported as zero. The observed peak plasma concentrations (Cmax) of LUM001 free form, time to reach peak plasma concentration (Tmax) and areas under the plasma concentration-time curve (AUC0-24) were calculated by the TOXAUC computer program (1). For calculation purposes the 0 hr plasma concentrations were set to zero on Day 1 and to the concentrations at 24 hr post dose on Day 78. The TK parameters were calculated from mean data for each group of rats. The bioavailability (% BA) of LUM001 after oral administration of LUM001 was calculated according to the equation below:
% BA=[AUC oral (0-8)/AUC IV(0-8)/Dose oral/Dose IV]×100

[3] = both sexes, CD IGS, Day 1, 150 mg/kg, Comb
[4] = both sexes, Charles River CD IGS, Day 78, 30.0 mg/kg, Comb
[5] = both sexes, Charles River CD IGS, Day 78, 150 mg/kg, Comb
[6] = female, CD IGS, Day 1, 150 mg/kg, F
[7] = female, CD IGS, Day 1, 500 mg/kg, F
[8] = female, Charles River CD IGS, Day 78, 30.0 mg/kg, F
[9] = female, Charles River CD IGS, Day 78, 150 mg/kg, F
[10] = female, Charles River CD IGS, Day 78, 500 mg/kg, F
[11] = male, CD IGS, Day 1, 30.0 mg/kg, M
[12] = male, CD IGS, Day 1, 75.0 mg/kg, M
[13] = male, CD IGS, Day 1, 150 mg/kg, M
[14] = male, Charles River CD IGS, Day 78, 5.0 mg/kg, M
[15] = male, Charles River CD IGS, Day 78, 30.0 mg/kg, M
[16] = male, Charles River CD IGS, Day 78, 75.0 mg/kg, M
[17] = male, Charles River CD IGS, Day 78, 150 mg/kg, M

CCCCC1(CCCC)CS(=O)(=O)c2ccc(N(C)C)cc2[C@@H](c2ccc(OCc3ccc(C[N+]45CCN(CC4)CC5)cc3)cc2)[C@H]1O [LUM001]
Inhibition of postprandial serum bile acids AUC (0-240 min) compared to cholestyramine ([1]; LUM001 0.02-15 mg/kg vs cholestyramine 200 or 500 mg/kg, single oral doses): superior inhibition of postprandial serum bile acids AUC, at a lower dose | Serum bile acids ([1]; single oral dose 0.02-15 mg/kg 30 minutes prior to feeding): significantly decreased serum bile acids | BA ([2]; Day 1, 5.0 mg/kg, F): <0.1% | BA ([2]; Day 1, 5.0 mg/kg, M): <0.1% | BA ([2]; Day 1, 30.0 mg/kg, F): <0.1% | BA ([2]; Day 1, 75.0 mg/kg, M): <0.1% | BA ([2]; Day 1, 150 mg/kg, Comb): <0.1% | BA ([2]; Day 1, 500 mg/kg, F): <0.1% | BA ([2]; Day 78, 5.0 mg/kg, F): <0.1% | BA ([2]; Day 78, 30.0 mg/kg, Comb): <0.1% | BA ([2]; Day 78, 75.0 mg/kg, M): <0.1% | BA ([2]; Day 78, 150 mg/kg, Comb): <0.1% | BA ([2]; Day 78, 500 mg/kg, F): <0.1% | AUC(0-t) ([2]; both sexes, CD IGS, 150 mg/kg, Day 1, 150 mg/kg, Comb): 0.101 µg·h/mL | Cmax [2, 3]: 37.3 ng/mL | Tmax [2, 3]: 2 h | AUC(0-t) ([2]; both sexes, Charles River CD IGS, 30 mg/kg, Day 78, 30.0 mg/kg, Comb): 0.0117 µg·h/mL | AUC(0-t) ([2]; both sexes, Charles River CD IGS, 150 mg/kg, Day 78, 150 mg/kg, Comb): 0.132 µg·h/mL | Cmax [2, 4]: 4.35 ng/mL | Tmax [2, 4]: 3 h | Cmax [2, 5]: 24.1 ng/mL | Tmax [2, 5]: 1 h | AUC(0-t) ([2]; female, CD IGS, 150 mg/kg, Day 1, 150 mg/kg, F): 0.106 µg·h/mL | Cmax [2, 6]: 42.4 ng/mL | Tmax [2, 6]: 2 h | Cmax [2, 7]: 9.99 ng/mL | Tmax [2, 7]: 3 h | AUC(0-t) ([2]; female, Charles River CD IGS, 30 mg/kg, Day 78, 30.0 mg/kg, F): 0.0124 µg·h/mL | AUC(0-t) ([2]; female, Charles River CD IGS, 150 mg/kg, Day 78, 150 mg/kg, F): 0.124 µg·h/mL | AUC(0-t) ([2]; female, Charles River CD IGS, 500 mg/kg, Day 1, 500 mg/kg, F): 0.0908 µg·h/mL | AUC(0-t) ([2]; female, Charles River CD IGS, 500 mg/kg, Day 78, 500 mg/kg, F): 0.47 µg·h/mL | Cmax [2, 8]: 3.95 ng/mL | Tmax [2, 8]: 3 h | Cmax [2, 9]: 22.2 ng/mL | Tmax [2, 9]: 2 h | Cmax [2, 10]: 62.9 ng/mL | Tmax [2, 10]: 3 h | AUC(0-t) ([2]; male, CD IGS, 30 mg/kg, Day 1, 30.0 mg/kg, M): 0.0151 µg·h/mL | AUC(0-t) ([2]; male, CD IGS, 75 mg/kg, Day 1, 75.0 mg/kg, M): 0.00637 µg·h/mL | AUC(0-t) ([2]; male, CD IGS, 150 mg/kg, Day 1, 150 mg/kg, M): 0.0963 µg·h/mL | Cmax [2, 11]: 8.59 ng/mL | Tmax [2, 11]: 2 h | Cmax [2, 12]: 2.55 ng/mL | Tmax [2, 12]: 5 h | Cmax [2, 13]: 32.1 ng/mL | Tmax [2, 13]: 3 h | AUC(0-t) ([2]; male, Charles River CD IGS, 5 mg/kg, Day 78, 5.0 mg/kg, M): 0.0111 µg·h/mL | AUC(0-t) ([2]; male, Charles River CD IGS, 30 mg/kg, Day 78, 30.0 mg/kg, M): 0.0114 µg·h/mL | AUC(0-t) ([2]; male, Charles River CD IGS, 75 mg/kg, Day 78, 75.0 mg/kg, M): 0.0614 µg·h/mL | AUC(0-t) ([2]; male, Charles River CD IGS, 150 mg/kg, Day 78, 150 mg/kg, M): 0.141 µg·h/mL | Cmax [2, 14]: 5.8 ng/mL | Tmax [2, 14]: 2 h | Cmax [2, 15]: 4.75 ng/mL | Tmax [2, 15]: 3 h | Cmax [2, 16]: 5.71 ng/mL | Tmax [2, 16]: 8 h | Cmax [2, 17]: 28.3 ng/mL | Tmax [2, 17]: 1 h

— patent US20140271734A1, “BILE ACID RECYCLING INHIBITORS FOR TREATMENT OF BARRETT'S ESOPHAGUS AND GASTROESOPHAGEAL REFLUX DISEASE” (LUMENA PHARMACEUTICALS, INC., priority 2013, published 2014)
